{"source": "ChEMBL document CHEMBL4699527", "about": "“Chemical Constituents from the Aerial Parts of Elsholtzia ciliata and Their Protective Activities on Glutamate-Induced HT22 Cell Death” (J Nat Prod, 2020)", "system": "HT-22", "experiment": "Neuroprotective activity against glutamate-induced cell death in mouse HT-22 cells assessed as increase in cell viability after 24 hrs by EZ-Cytox assay", "type": "functional, cell-based", "conditions": "HT-22, 24 h", "data": [{"smiles": "COc1cc(/C=C/C(=O)NC[C@H](O)c2ccc(O)cc2)ccc1O", "values": [{"measurement": "EC50", "value": 32.3, "unit": "µM"}]}, {"smiles": "OC[C@H]1O[C@@H](OCc2ccccc2)[C@H](O)[C@@H](O)[C@@H]1O", "values": [{"measurement": "EC50", "value": "> 100", "unit": "µM"}]}, {"smiles": "O=C(O)/C=C\\c1ccc(O)cc1", "values": [{"measurement": "EC50", "value": "> 100", "unit": "µM"}]}, {"smiles": "O=C(/C=C/c1ccc(O)c(O)c1)O[C@@H]1C[C@](O)(C(=O)O)C[C@@H](OC(=O)/C=C/c2ccc(O)c(O)c2)[C@H]1O", "values": [{"measurement": "EC50", "value": "> 100", "unit": "µM"}]}, {"smiles": "COc1c(O)c(OC)c2c(=O)cc(-c3ccccc3)oc2c1OC", "values": [{"measurement": "EC50", "value": 43.6, "unit": "µM"}]}, {"smiles": "COc1ccc(-c2cc(=O)c3c(O)cc(O[C@@H]4O[C@H](CO[C@@H]5O[C@@H](C)[C@H](O)[C@@H](O)[C@H]5O)[C@@H](O)[C@H](O)[C@H]4O[C@@H]4O[C@H](COC(C)=O)[C@@H](O)[C@H](O)[C@H]4O)cc3o2)cc1", "values": [{"measurement": "EC50", "value": "> 100", "unit": "µM"}]}, {"smiles": "COc1ccc(-c2cc(=O)c3c(O)cc(O[C@@H]4O[C@H](CO[C@@H]5O[C@@H](C)[C@H](OC(C)=O)[C@@H](O)[C@H]5O)[C@@H](O)[C@H](O)[C@H]4O)cc3o2)cc1", "values": [{"measurement": "EC50", "value": "> 100", "unit": "µM"}]}, {"smiles": "CC(C)=CCC/C(C)=C\\CO[C@@H]1O[C@H](CO)[C@@H](O)[C@H](O)[C@H]1O", "values": [{"measurement": "EC50", "value": "> 100", "unit": "µM"}]}, {"smiles": "O=C(O)/C=C/C=C/c1ccc(O)c(O[C@@H]2O[C@H](COC(=O)/C=C/c3ccc(O)c(O)c3)[C@@H](O)[C@H](O)[C@H]2O)c1", "values": [{"measurement": "EC50", "value": 56.2, "unit": "µM"}]}, {"smiles": "O=C1C[C@@H](c2ccc(O)c(O)c2)Oc2c1ccc(O)c2O", "values": [{"measurement": "EC50", "value": 6.2, "unit": "µM"}]}, {"smiles": "O=C1/C=C/c2ccc(O)c(c2)O[C@@H]2O[C@H](COC(=O)/C=C/c3cc(O)c(O)cc3C1)[C@@H](O)[C@H](O)[C@H]2O", "values": [{"measurement": "EC50", "value": 8.3, "unit": "µM"}]}, {"smiles": "O=C(/C=C/c1ccc(O)cc1)c1ccc(O[C@@H]2O[C@H](CO)[C@@H](O)[C@H](O)[C@H]2O)cc1O", "values": [{"measurement": "EC50", "value": 72, "unit": "µM"}]}, {"smiles": "O=C(/C=C/c1ccc(O)c(O)c1)O[C@H]1CC[C@@H](O)[C@H]1O", "values": [{"measurement": "EC50", "value": "> 100", "unit": "µM"}]}, {"smiles": "COc1ccc(/C=C/C(=O)c2ccc(O[C@@H]3O[C@H](CO)[C@@H](O)[C@H](O)[C@H]3O)cc2O)cc1O", "values": [{"measurement": "EC50", "value": 63.4, "unit": "µM"}]}, {"smiles": "COc1ccc(-c2cc(=O)c3c(O)cc(O[C@@H]4O[C@H](CO[C@@H]5O[C@@H](C)[C@H](OC(C)=O)[C@@H](O)[C@H]5O)[C@@H](O)[C@H](O)[C@H]4O[C@@H]4O[C@H](COC(C)=O)[C@@H](O)[C@H](OC(C)=O)[C@H]4O)cc3o2)cc1", "values": [{"measurement": "EC50", "value": "> 100", "unit": "µM"}]}, {"smiles": "COc1ccc(-c2cc(=O)c3c(O)cc(O[C@@H]4O[C@H](CO[C@@H]5O[C@@H](C)[C@H](OC(C)=O)[C@@H](O)[C@H]5O)[C@@H](O)[C@H](O)[C@H]4O[C@@H]4O[C@H](COC(C)=O)[C@@H](O)[C@H](O)[C@H]4O)cc3o2)cc1", "values": [{"measurement": "EC50", "value": "> 100", "unit": "µM"}]}, {"smiles": "COc1ccc(/C=C/C(=O)c2ccc(O[C@@H]3O[C@H](CO)[C@@H](O)[C@H](O)[C@H]3O)c(O)c2O)cc1O", "values": [{"measurement": "EC50", "value": 4.7, "unit": "µM"}]}, {"smiles": "COc1ccc(/C=C/C(=O)c2ccc(O)cc2O)cc1O", "values": [{"measurement": "EC50", "value": 35.2, "unit": "µM"}]}, {"smiles": "COc1ccc(-c2cc(=O)c3c(O)cc(O[C@@H]4O[C@H](CO[C@@H]5O[C@@H](C)[C@H](OC(C)=O)[C@@H](O)[C@H]5O)[C@@H](O)[C@H](O)[C@H]4O[C@@H]4O[C@H](CO)[C@@H](O)[C@H](O)[C@H]4O)cc3o2)cc1", "values": [{"measurement": "EC50", "value": 69.7, "unit": "µM"}]}, {"smiles": "CC(=O)/C=C/c1ccc(O)c(O[C@@H]2O[C@H](COC(=O)/C=C/c3ccc(O)c(O)c3)[C@@H](O)[C@H](O)[C@H]2O)c1", "values": [{"measurement": "EC50", "value": 62.2, "unit": "µM"}]}, {"smiles": "COc1ccc(-c2cc(=O)c3c(O)cc(O[C@@H]4O[C@H](CO[C@@H]5O[C@@H](C)[C@H](O)[C@@H](OC(C)=O)[C@H]5O)[C@@H](O)[C@H](O)[C@H]4O[C@@H]4O[C@H](COC(C)=O)[C@@H](O)[C@H](O)[C@H]4O)cc3o2)cc1", "values": [{"measurement": "EC50", "value": "> 100", "unit": "µM"}]}, {"smiles": "CC(=O)/C=C/c1ccc(O)c(O)c1", "values": [{"measurement": "EC50", "value": 1.5, "unit": "µM"}]}, {"smiles": "O=Cc1ccc(O)cc1", "note": "[4-HYDROXYBENZALDEHYDE]", "values": [{"measurement": "EC50", "value": 33.2, "unit": "µM"}]}, {"smiles": "COc1ccc(-c2cc(=O)c3c(O)cc(O[C@@H]4O[C@H](CO[C@@H]5O[C@@H](C)[C@H](O)[C@@H](O)[C@H]5O)[C@@H](O)[C@H](O)[C@H]4O)cc3o2)cc1", "note": "[ACACIIN]", "values": [{"measurement": "EC50", "value": 69.3, "unit": "µM"}]}, {"smiles": "CC(=O)N[C@@H](CS)C(=O)O", "note": "[ACETYLCYSTEINE]", "values": [{"measurement": "EC50", "value": 700, "unit": "µM"}]}, {"smiles": "O=c1cc(-c2ccc(O)cc2)oc2cc(O)cc(O)c12", "note": "[APIGENIN]", "values": [{"measurement": "EC50", "value": "> 100", "unit": "µM"}]}, {"smiles": "O=c1cc(-c2ccc(O)cc2)oc2cc(O[C@@H]3O[C@H](CO)[C@@H](O)[C@H](O)[C@H]3O)cc(O)c12", "note": "[APIGETRIN]", "values": [{"measurement": "EC50", "value": "> 100", "unit": "µM"}]}, {"smiles": "O=C(O)/C=C/c1ccc(O)c(O)c1", "note": "[CAFFEIC ACID]", "values": [{"measurement": "EC50", "value": 77.1, "unit": "µM"}]}, {"smiles": "O=C(O)/C=C/c1ccc(O)cc1", "note": "[COUMARIC ACID]", "values": [{"measurement": "EC50", "value": 6.4, "unit": "µM"}]}, {"smiles": "COc1ccc(-c2cc(=O)c3c(O)cc(O)cc3o2)cc1O", "note": "[DIOSMETIN]", "values": [{"measurement": "EC50", "value": 59.7, "unit": "µM"}]}, {"smiles": "CCOC(=O)/C=C/c1ccc(O)c(O)c1", "note": "[ETHYL CAFFEATE]", "values": [{"measurement": "EC50", "value": 1.9, "unit": "µM"}]}, {"smiles": "COc1cc2oc(-c3ccccc3)cc(=O)c2c(O)c1OC", "note": "[MOSLOFLAVONE]", "values": [{"measurement": "EC50", "value": 23.4, "unit": "µM"}]}, {"smiles": "O=C(O)c1ccc(O)cc1", "note": "[PARABEN]", "values": [{"measurement": "EC50", "value": "> 100", "unit": "µM"}]}, {"smiles": "O=C(O)c1ccc(O)c(O)c1", "note": "[PROTOCATECHUIC ACID]", "values": [{"measurement": "EC50", "value": "> 100", "unit": "µM"}]}, {"smiles": "O=C(/C=C/c1ccc(O)c(O)c1)O[C@H](Cc1ccc(O)c(O)c1)C(=O)O", "note": "[ROSMARINIC ACID]", "values": [{"measurement": "EC50", "value": 86, "unit": "µM"}]}, {"smiles": "O=C1/C(=C/c2ccc(O)c(O)c2)Oc2cc(O)ccc21", "note": "[SULFURETIN]", "values": [{"measurement": "EC50", "value": 3.5, "unit": "µM"}]}, {"smiles": "COc1cc(C(=O)O)ccc1O", "note": "[VANILLIC ACID]", "values": [{"measurement": "EC50", "value": 27.8, "unit": "µM"}]}]}
